Entries after “also recorded” stand apart in the source; their conditions may differ.
Columns and labels:
CD137 [1] = target: T1, CD137 (Homo sapiens, UniProt Q07011); assay: CD137 cell activity, Promega CD137 NF-κB luciferase reporter assay in Jurkat cells, antagonism of CD137L; assay type: cell-based; parameters: host or cells: Jurkat (CD137 Jurkat reporter cells); settings: co-incubation with trimeric CD137L, FIG. 1
Description: The biological activity of the CD137-specific peptides was tested using the cellular CD137 luciferase reporter assay kit (Promega). The cells in this commercially available kit express luciferase that is activated down-stream of CD137. This assay can be used to assess agonism (exemplified by CD137 ligand, CD137L) and antagonism (exemplified by bicyclic peptide 74-01-04-N002).
The Promega CD137 cell-activity assay uses NF-κB luciferase luminescence as a read-out of CD137 activation in Jurkat cells. […] Dilute and then titrate down the bicyclic peptide in a sterile 96 well-plate. […] Prepare enough reagent for duplicate samples and then perform ⅓ dilution series dilution series. Include positive control CD137L and bicyclic peptide alone. […] Add 50 μl cells/well to white cell culture plate. Add 12.5 μl bicyclic peptide (at 6× final concentration) to the cells.
Co-incubate cells together with CD137L agonist and bicyclic peptide for 6 h at 37° C., 5% CO2. After 6 h thaw Bio-Glo™ and develop the assay at room-temperature. Add 75 μl Bio-Glo™ per well and incubate 5-10 min. Read luminescence signal on Pherastar plate-reader LUM plus models, gain 3600 using MARS software. Analyse data by calculating the percentage inhibition compared to CD137L alone. […]
The CD137 reporter activity was determined as NF-κB promotor driven luciferase activity.

CD137 [2] = target: T1, CD137; assay: Fluorescence polarization competition binding assay, tracer BCY640 against CD137L, Urelumab, Utomilumab; parameters: purchased AcroBiosystems; settings: BCY640 tracer at 1 nM, CD137 500 nM, FIGS. 2 and 3
Description: The binding site of the hCD137-specific Bicycle peptide was determined by competition experiment between a fluorescent labelled CD137 binding peptide and natural ligand CD137L, agonistic antibodies Urelumab and Utomilumab. Urelumab antibody binds to a distinct binding site while CD137L and Utomilumab both bind to the site termed the ligand-binding site.
The competitor agonists CD137L (R&D systems), Urelumab and Utomilumab were diluted in assay buffer 20 mM HEPES, 150 mM NaCl, 0.05% P20, pH7.5 to a top concentration of 500-1000 nM. The human CD137 protein (AcroBiosystems) was diluted to 500 nM final concentration in the assay. […] The assay was typically set up by adding 5 μL agonist competitor, 10 μL CD137 protein then 10 μL fluorescent peptide. The total volume of 25 μL was prepared in black walled and bottomed low binding low volume 384 well plates. Measurements were conducted on a BMG PHERAstar FS equipped with an FP 485 520 520 optic module at 25° C. with 200 flashes per well and a positioning delay of 0.1 second. Each well was measured every 5 minutes for 60 minutes. The gain was set in a well containing tracer without target protein. The mP-values at the end of the 60 minutes read were plotted against concentration of the agonists. Reduction in the mP-values indicates competition between the known agonist and the tracer peptide.

CD137 [3] = target: T1, CD137; assay: CD137 direct binding assay (fluorescence polarisation); settings: D-Alanine scan, reference BCY7151
Description: Affinity of the peptides of the invention for human CD137 (Ki) was determined using a fluorescence polarisation assay, in accordance with the methods disclosed in WO 2016/067035. Peptides of the invention were labelled with a fluorescent tag (fluorescein, FI) and diluted to 2.5 nM in 50 mM HEPES with 100 mM NaCl and 0.05% tween pH 7.5. CD137 protein was titrated starting at 3 μM in the same assay buffer as the peptide to assay 1 nM peptide in a total volume of 25 μL in black walled and bottomed low bind low volume 384 well plates. The assay was typically set up by adding 5 μL assay buffer, 10 μL CD137 protein then 10 μL fluorescent peptide. The concentrations of CD137 protein were 1 in 2 serial dilutions to give 12 different concentrations starting at 3 μM. Measurements were conducted on a BMG PHERAstar FS equipped with an FP 485 520 520 optic module at 25° C. with 200 flashes per well and a positioning delay of 0.1 second. Alternatively, the measurements were performed using Envision (PerkinElmer) equipped with FITC FP Dual Enh mirror, set to 30 flashes. Each well was measured every 5 minutes for 60 minutes. The gain used for analysis was determined for each tracer at the end of the 60 minutes where there was no protein in the well. The mP were fit to a standard 1:1 binding model with a quadratic equation to generate a Kd value.

T1 sequence (Q07011 24-255): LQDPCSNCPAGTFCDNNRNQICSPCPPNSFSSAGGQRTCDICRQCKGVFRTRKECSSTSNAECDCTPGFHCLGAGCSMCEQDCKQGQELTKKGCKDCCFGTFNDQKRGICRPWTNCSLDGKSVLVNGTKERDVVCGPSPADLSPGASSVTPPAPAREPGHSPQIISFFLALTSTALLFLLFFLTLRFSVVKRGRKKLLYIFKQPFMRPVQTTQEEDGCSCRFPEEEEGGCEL

ACIEEGQYCFADPYMCA [BCY592] was tested, and the “effect on CD137L activity in CD137 reporter cells” value (CD137 [1]) was “can act as an antagonist that inhibits CD137L activity; also recorded: inhibited CD137L activity”.
ACIEEGQYCFADPYMCA-Sar6-K [BCY640] was tested, and the “binding site on CD137 by competition” value (CD137 [2]) was “binds to the physiologically relevant epitope that is shared with both the natural CD137 ligand (CD137L) and CD137 antibody (Utomilumab)”.
In the case of [PEG3]-ACIEEaQYCFADPY(Nle)CA [BCY7297], the “affinity relative to the reference peptide” value (CD137 [3]) is reported as “improved affinity”.

From US12049520B2, “Bicyclic peptide ligands specific for CD137” (priority 2017, dated 2024)
